These are literature values, as cited in patent publication US8097636B2, “Heterocyclic derivatives as modulators of ion channels” (Vertex Pharmaceuticals Incorporated, priority 2007, dated 2012).

The term IC50 denotes the concentration needed to halve the response being measured.

The target of this data set is NaV1.3 (Homo sapiens, UniProt Q9NY46). Particulars: read-out: TTX IC50.
NaV1.3, sequence (Q9NY46 whole entry, looked up): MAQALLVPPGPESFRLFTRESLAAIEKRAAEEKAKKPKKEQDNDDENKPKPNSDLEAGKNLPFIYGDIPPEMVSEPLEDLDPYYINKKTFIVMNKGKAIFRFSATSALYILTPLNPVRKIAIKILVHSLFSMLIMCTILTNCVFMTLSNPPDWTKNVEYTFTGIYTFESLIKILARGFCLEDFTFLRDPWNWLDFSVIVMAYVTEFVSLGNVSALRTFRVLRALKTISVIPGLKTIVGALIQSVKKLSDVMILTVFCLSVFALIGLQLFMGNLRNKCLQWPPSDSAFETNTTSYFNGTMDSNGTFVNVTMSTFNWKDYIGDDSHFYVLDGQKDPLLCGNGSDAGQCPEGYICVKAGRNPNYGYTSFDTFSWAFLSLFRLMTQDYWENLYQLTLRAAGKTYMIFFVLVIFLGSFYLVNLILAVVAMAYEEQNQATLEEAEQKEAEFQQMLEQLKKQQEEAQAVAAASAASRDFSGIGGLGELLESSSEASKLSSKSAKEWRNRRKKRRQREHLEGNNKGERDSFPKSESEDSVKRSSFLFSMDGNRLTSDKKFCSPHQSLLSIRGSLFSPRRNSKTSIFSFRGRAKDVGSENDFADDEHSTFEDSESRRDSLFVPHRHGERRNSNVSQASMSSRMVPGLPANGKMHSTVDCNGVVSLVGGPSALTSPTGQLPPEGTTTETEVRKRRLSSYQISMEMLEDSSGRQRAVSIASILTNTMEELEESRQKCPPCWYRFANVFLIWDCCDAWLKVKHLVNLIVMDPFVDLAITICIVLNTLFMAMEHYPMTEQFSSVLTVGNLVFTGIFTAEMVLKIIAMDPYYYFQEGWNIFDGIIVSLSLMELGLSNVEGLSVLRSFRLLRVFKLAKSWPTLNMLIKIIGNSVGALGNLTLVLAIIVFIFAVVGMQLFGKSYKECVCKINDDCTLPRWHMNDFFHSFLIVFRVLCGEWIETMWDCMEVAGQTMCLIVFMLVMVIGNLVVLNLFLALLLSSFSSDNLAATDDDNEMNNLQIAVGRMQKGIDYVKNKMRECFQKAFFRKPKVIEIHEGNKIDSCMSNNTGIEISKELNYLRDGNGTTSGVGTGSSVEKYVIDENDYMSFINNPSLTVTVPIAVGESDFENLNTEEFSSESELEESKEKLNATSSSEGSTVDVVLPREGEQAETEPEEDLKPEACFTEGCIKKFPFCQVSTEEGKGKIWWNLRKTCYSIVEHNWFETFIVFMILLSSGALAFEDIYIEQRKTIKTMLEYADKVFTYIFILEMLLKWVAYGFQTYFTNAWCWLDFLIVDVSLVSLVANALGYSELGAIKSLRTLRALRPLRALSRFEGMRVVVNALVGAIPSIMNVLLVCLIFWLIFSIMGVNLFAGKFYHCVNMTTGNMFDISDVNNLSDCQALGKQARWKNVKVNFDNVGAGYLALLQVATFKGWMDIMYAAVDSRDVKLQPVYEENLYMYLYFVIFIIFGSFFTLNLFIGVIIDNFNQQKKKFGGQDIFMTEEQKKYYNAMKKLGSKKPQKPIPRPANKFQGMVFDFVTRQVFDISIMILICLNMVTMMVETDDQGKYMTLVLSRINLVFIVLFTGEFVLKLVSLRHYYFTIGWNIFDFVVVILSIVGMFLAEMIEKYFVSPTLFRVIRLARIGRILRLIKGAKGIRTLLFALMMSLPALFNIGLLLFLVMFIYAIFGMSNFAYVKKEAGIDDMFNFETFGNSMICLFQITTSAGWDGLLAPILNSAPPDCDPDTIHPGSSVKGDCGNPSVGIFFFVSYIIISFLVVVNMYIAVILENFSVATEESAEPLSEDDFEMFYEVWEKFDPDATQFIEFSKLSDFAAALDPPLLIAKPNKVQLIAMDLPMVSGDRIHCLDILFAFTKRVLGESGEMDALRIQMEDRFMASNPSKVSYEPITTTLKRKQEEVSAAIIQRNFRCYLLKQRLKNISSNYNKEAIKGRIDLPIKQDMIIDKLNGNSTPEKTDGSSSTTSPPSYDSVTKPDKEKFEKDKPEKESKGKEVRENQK

Take `NC1=N[C@H](O)[C@H]2[C@H]3O[C@]4(O)O[C@@H]([C@@H](O)[C@@]2(N1)[C@@H]4O)[C@]3(O)CO` [TTX, tetrodotoxin]: the IC50 is 15 nM.
